Results from PubChem BioAssay (NCI).
Several values for one entry are separate records, joined by “and”; a condition that tells them apart may be missing. Equal entries are not always repeated.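 Exposure lasted 48 hours, with cells grown in 96-well plates and compounds tested at five concentrations. Here, GI50 denotes the concentration required for 50% inhibition of growth. TGI is the concentration that stops growth completely.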

Assays:
Assay in all cases: NCI anticancer screen, dose series, 48 h
MDA-MB-231 breast = test system: MDA-MB-231 breast
COLO 205 colon = test system: COLO 205 colon
SW-620 colon = test system: SW-620 colon
NCI-H23 lung = test system: NCI-H23 lung
HCT-116 colon = test system: HCT-116 colon
HT29 colon = test system: HT29 colon
LOX IMVI melanoma = test system: LOX IMVI melanoma
SK-MEL-2 melanoma = test system: SK-MEL-2 melanoma
SK-MEL-28 melanoma = test system: SK-MEL-28 melanoma
SNB-19 CNS = test system: SNB-19 CNS

Structure (SMILES) | GI50 (MDA-MB-231 breast) [µM] | TGI (MDA-MB-231 breast) [µM] | GI50 (COLO 205 colon) [µM] | TGI (COLO 205 colon) | GI50 (SW-620 colon) [µM] | TGI (SW-620 colon) | GI50 (NCI-H23 lung) [µM] | TGI (NCI-H23 lung) | GI50 (HCT-116 colon) [µM] | TGI (HCT-116 colon) | GI50 (HT29 colon) [µM] | TGI (HT29 colon) | GI50 (LOX IMVI melanoma) [µM] | TGI (LOX IMVI melanoma) | GI50 (SK-MEL-2 melanoma) [µM] | TGI (SK-MEL-2 melanoma) | GI50 (SK-MEL-28 melanoma) [µM] | TGI (SK-MEL-28 melanoma) | GI50 (SNB-19 CNS) [µM] | TGI (SNB-19 CNS)
COc1ccccc1CN=C1NC(=O)/C(=C/c2ccc3ncccc3c2)S1 | 11.2 | > 25 | 5.92 | > 24.1 µM | 4.54 | > 25 µM | 8.65 | > 25 µM | 3.1 | > 25 µM | 8.45 | > 25 µM | 7.38 | > 25 µM | 10.4 | > 25 µM | > 15.3 | > 25 µM | 4.01 | > 25 µM
O=C(NCCN1CCOCC1)Nc1nc2ccc(Sc3nnc4ccc(-c5ccc(F)cc5)nn34)cc2s1 | 3 | > 21.6 | 4.53 | > 33.3 µM | – | > 100 µM | > 100 | > 100 µM | 6.88 | > 100 µM | 2.79 | > 24.2 µM | – | > 42.3 µM | > 44.3 | > 91.2 µM | 2.59 | – | 2.8 | > 100 µM
O=C(CC(O)c1cccnc1)CC(O)c1cccnc1 (stereo unspecified) | – | 29.9 | – | 29 µM | – | 19.6 µM | – | 52 µM | – | 4.33 µM | – | 20.7 µM | – | 15.4 µM | – | 37 µM | – | 44.2 µM | – | 55.4 µM
CN(C)C(=O)C(NCCO)c1ccccc1 (stereo unspecified) | – | > 100 | – | > 100 µM | – | > 100 µM | – | > 100 µM | – | > 100 µM | – | > 100 µM | – | > 100 µM | – | > 100 µM | – | > 100 µM | – | > 100 µM
CC[C@]12C=CCN3CC[C@@]4(c5ccc(OC)cc5N(C)[C@H]4[C@@](O)(C(=O)OC)[C@@H]1OC(=O)CCCC[P+](c1ccccc1)(c1ccccc1)c1ccccc1)[C@@H]32 | 0.414 | 1.9 | 0.242 | 0.586 µM | 1.14 | 12.6 µM | 1.07 | 10.5 µM | 0.777 | 12 µM | 0.441 | 5.48 µM | 1.11 | 9.03 µM | 0.478 | 1.45 µM | 0.52 | 1.84 µM | 0.384 | 2.92 µM
CS(=O)(=O)OCCCCOS(C)(=O)=O | > 250 | > 1000 | > 1000 | 250 µM and > 1000 µM | > 1000 | 250 µM and > 1000 µM | 685 | 249 µM and > 1000 µM | 689 | 250 µM and > 1000 µM | > 846 | 250 µM and > 1000 µM | 5.96 | 248 µM and > 1000 µM | > 1000 | 250 µM and > 1000 µM | 980 | 232 µM and > 1000 µM | > 862 | 233 µM and > 1000 µM
CN(C)c1ccc(/C=N/NC(=O)CSc2nc3sc4c(c3c(=O)n2-c2ccccc2)CCCCC4)cc1 | 2.89 | 18 | 4.14 | > 100 µM | 3.56 | > 100 µM | 3.79 | > 100 µM | 3.96 | > 100 µM | 4.31 | > 100 µM | 3.05 | > 100 µM | 15.5 | 59.3 µM | 4.42 | > 100 µM | 6.66 | 80.9 µM
COC1=CC(=O)c2c(O)c3c(c(O)c2C1=O)OC1(Oc2c(cc4cc(C)oc(=O)c4c2O)CC1O)C3O (stereo unspecified) | – | 54.5 | – | > 100 µM | – | > 100 µM | – | > 100 µM | – | > 100 µM | – | > 100 µM | – | > 100 µM | – | > 100 µM | – | > 100 µM | – | 62.4 µM
Cc1cc(C)nc(NS(=O)(=O)c2ccc(Nc3nc4nc(NCc5ccccc5)nc(-c5ccc(O)cc5)c4c(=O)[nH]3)cc2)n1 | 29.6 | > 100 | 81.8 | > 100 µM | 26.7 | > 100 µM | 79.7 | > 100 µM | 23.6 | > 100 µM | 57.9 | > 100 µM | 25.2 | > 100 µM | 20.7 | > 100 µM | 13.4 | > 100 µM | 27.4 | > 100 µM
CCN(CC)c1ccc(CNc2cc(C)nc3ccc(OC)cc23)cc1 | 2.46 | 6.81 | 1.31 | 2.76 µM | 1.75 | 3.47 µM | 2.7 | 9.8 µM | 2.34 | 7.76 µM | 0.955 | 3.59 µM | 1.67 | 3.47 µM | 1.83 | 3.56 µM | 1.86 | 3.38 µM | 3.98 | 16.3 µM
COc1ccc(Nc2[nH]n(C3=Nc4ccccc4Sc4ccccc43)c(=O)c2C#N)cc1 | 1.39 | 11.9 | 1.51 | 3.35 µM | 3.18 | > 100 µM | 0.637 | 6.64 µM | 1.33 | 12 µM | 1.99 | 9.35 µM | 1.37 | 4.27 µM | 1.74 | 5 µM | 3.87 | > 100 µM | 3.53 | > 100 µM
COc1ccc(-c2c(-c3cc4c(c(OC)c3OC)OCO4)noc2N)cc1 | 2.32 | > 62.9 | 0.277 | 1.25 µM | 0.235 | > 100 µM | 0.427 | > 100 µM | 0.34 | 15.9 µM | 0.279 | 3.15 µM | 0.48 | > 100 µM | 0.235 | – | 0.459 | > 100 µM | 0.661 | > 100 µM
